In general, IC50 refers to the midpoint of a concentration-inhibition curve.

Experimental findings from patent publication US9944589B2, “Cycloproplyamine derivatives useful as inhibitors of histone demethylases KDM1A” (Istituto Europeo de Oncologia S.r.L., priority 2012, dated 2018) are described below.

Counter-ions that a name gives are not always drawn.

Assay [1] addresses T1, human recombinant KDM1A (LSD1)/CoRest (Homo sapiens, UniProt O60341).
T1 construct: made in house; host or cells: E. coli
Kind of assay: Assay of enzyme inhibition of KDM1A (LSD1), Amplex UltraRed/peroxidase coupled. In kind it is biochemical. Conditions: 15 min preincubation, 4.5 μM mono-methylated H3-K4 peptide, range classes, read-out: IC50 [μM], KDM1A inhibition assay. Summed up:
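KDM1A/CoRest complex with inhibitor (e.g. 0–100 μM) and Amplex UltraRed/peroxidase preincubated 15 min at RT. Substrate: mono-methylated H3K4 21-mer peptide in 50 mM Tris pH 8, 0.05 mg/ml BSA, aerobic. IC50 from duplicates run twice, background-corrected.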

Assay [2] relates to Acute promyelocytic leukemia NB4 cells. Description: Cell growth (CellTiter-Fluor cell viability assay). Conditions: Homo sapiens, NB-4, 48 h, range classes, read-out: IC50 [μM], cell growth inhibitory assay. In kind it is cell-based. The source says:
CellTiter-Flor® (Promega) is as a nonlytic, single-reagent-addition fluorescence assay that measures the relative number of living cells in a culture population after experimental manipulation. The CellTiter-Fluor™ Cell Viability Assay measures the conserved and constitutive protease activity within live cells and therefore acts as a marker for cell viability.
Acute promyelocytic leukemia NB4 cells, (obtained from the Deutsche Sammlung von Mikroorganismen and Zellkulturen) in exponential growth, were incubated for 48 h with different concentrations of the inhibitors. After 48 h a volume of CellTiter-Fluor® Reagent equal to one fifth of volume of cell culture medium was added. The content was mixed and incubates for at least 90 min at 37° C. degree to obtain a stable signal. The fluorescence was recorded using an excitation wavelength of 360 nm and an emission at 535 nm. The IC50 was calculated using GraphPad Software.

Turning to `CC[C@@]1(N)C[C@H]1c1cccc(NC(=O)c2ccc3ccccc3c2)c1` (relative stereo) [Example A-92, N-[3-[trans-2-amino-2-ethyl-cyclopropyl]phenyl] naphthalene-2-carboxamide hydrochloride], the IC50 in assay [1] was in the range of 0.1 to 1 µM; in assay [2] it was 10 to 50 µM.

With `CC[C@@]1(N)C[C@H]1c1ccc(NC(=O)c2ccc(NC(=O)OCc3ccccc3)cc2)c(F)c1` (relative stereo) [Example A-95, benzyl N-[4-[[4-[trans-2-amino-2-ethyl-cyclopropyl]-2-fluoro-phenyl]carbamoyl]phenyl]carbamate hydrochloride], the half-inhibitory concentration (IC50) in assay [1] was 0.1 to 1 µM; in assay [2], at most 10 µM.

Turning to `CC[C@@]1(N)C[C@H]1c1ccc(NC(=O)c2ccc(N3CCN(C)CC3)cc2)cc1` (relative stereo) [Example A-97, N-[4-[trans-2-amino-2-ethyl-cyclopropyl]phenyl]-4-(4-methylpiperazin-1-yl)benzamide 2,2,2-trifluoroacetic acid], the 50% inhibitory concentration (IC50) is below 0.1 µM in assay [1] and 10 to 50 µM in assay [2].

For `CC[C@@]1(N)C[C@H]1c1ccc(NC(=O)c2ccc(N3CCOCC3)c(NC(=O)OCc3ccccc3)c2)cc1` (relative stereo) [Example A-99, benzyl N-[5-[[4-[trans-2-amino-2-ethyl-cyclopropyl]phenyl]carbamoyl]-2-morpholino-phenyl]carbamate 2,2,2-trifluoroacetic acid], the half-maximal inhibitory concentration (IC50) was below 0.1 µM in assay [1] and at most 10 µM in assay [2].

In the case of `CC[C@@]1(N)C[C@H]1c1ccc(NC(=O)c2ccncc2)cc1` (relative stereo) [Example A-101, N-[4-(trans-2-amino-2-ethyl-cyclopropyl)phenyl] pyridine-4-carboxamide dihydrochloride], the 50% inhibitory concentration (IC50) in assay [1] was below 0.1 µM; in assay [2], 10 to 50 µM.

Turning to `N[C@]1(CCc2ccccc2)C[C@H]1c1ccc(NC(=O)c2ccc(-c3ccccc3)cc2)cc1` (relative stereo) [Example A-113, N-[4-(trans-2-amino-2-phenethyl-cyclopropyl)phenyl]-4-phenyl-benzamide hydrochloride], the concentration for half-maximal inhibition (IC50) in assay [1] is 0.1 to 1 µM; in assay [2], at most 10 µM.

`CN1CCC(c2ccc(C(=O)Nc3ccc([C@@H]4C[C@]4(N)CCc4ccccc4)cc3)cc2)CC1` (relative stereo) [Example A-115, N-[4-(trans-2-amino-2-phenethyl-cyclopropyl)phenyl]-4-(1-methyl-4-piperidyl)benzamide dihydrochloride]: the half-maximal inhibitory concentration (IC50) in assay [1] was below 0.1 µM; in assay [2] it was at most 10 µM.

Consider `CC[C@@]1(N)C[C@H]1c1ccc(NC(=O)c2ccc(N3CCN(C)CC3)c(NC(=O)OCc3ccccc3)c2)cc1` (relative stereo) [Example A-117, benzyl N-[5-[[4-[trans-2-amino-2-ethyl-cyclopropyl]phenyl]carbamoyl]-2-(4-methylpiperazin-1-yl)phenyl] carbamate 2,2,2-trifluoroacetic acid], for which the IC50 is 0.1 to 1 µM in assay [1] and at most 10 µM in assay [2].

Consider `N[C@]1(CCc2ccccc2)C[C@H]1c1ccc(NC(=O)c2cccc(N3CCOC3=O)c2)cc1` (relative stereo) [Example A-118, N-[4-(trans-2-amino-2-phenethyl-cyclopropyl)phenyl]-3-(2-oxooxazolidin-3-yl)benzamide 2,2,2-trifluoroacetic acid], for which the 50% inhibitory concentration (IC50) in assay [1] was below 0.1 µM; in assay [2] it was at most 10 µM.

In the case of `CC[C@@]1(N)C[C@H]1c1ccc(-n2cc(-c3cccc(NC(=O)OCc4ccccc4)c3)nn2)cc1` (relative stereo) [Example A-121, Benzyl N-[3-[1-[4-[trans-2-amino-2-ethyl-cyclopropyl]phenyl]triazol-4-yl]phenyl]carbamate hydrochloride], the values for the IC50 in assay [1] and in assay [2] were 0.1 to 1 µM and 50 to 100 µM, respectively.

Consider `CC[C@@]1(N)C[C@H]1c1cccc(-n2cc(-c3ccccc3)nn2)c1` (relative stereo) [Example A-122, trans-1-ethyl-2-[3-(4-phenyltriazol-1-yl)phenyl]cyclopropan amine hydrochloride], for which the IC50 lay in the range of 0.1 to 1 µM in assay [1] and 10 to 50 µM in assay [2].
